Counter-ions that a name gives are not always drawn.

In the experiment the target is human active recombinant p38α-6His tagged (Homo sapiens, UniProt Q16539). The experiment is described as follows: P38 Alpha Enzyme Assay (AlphaScreen, biotinylated-ATF2 substrate).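 Further: 0.5 nM final p38α, reaction started with ATP and run 45 min at 37 °C, phospho-ATF2 read by antibody-based AlphaScreen, background wells quenched with EDTA before ATP.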 Type of experiment: biochemical. Conditions: p38 alpha enzyme inhibition; means of replicate determinations; 4 h pre-incubation at 37° C.; SD of assay 0.2-0.3 log units. (In general: In Alpha technology, singlet oxygen from a donor bead excites a nearby acceptor bead.)
Chain of human active recombinant p38α-6His tagged (Q16539 whole entry): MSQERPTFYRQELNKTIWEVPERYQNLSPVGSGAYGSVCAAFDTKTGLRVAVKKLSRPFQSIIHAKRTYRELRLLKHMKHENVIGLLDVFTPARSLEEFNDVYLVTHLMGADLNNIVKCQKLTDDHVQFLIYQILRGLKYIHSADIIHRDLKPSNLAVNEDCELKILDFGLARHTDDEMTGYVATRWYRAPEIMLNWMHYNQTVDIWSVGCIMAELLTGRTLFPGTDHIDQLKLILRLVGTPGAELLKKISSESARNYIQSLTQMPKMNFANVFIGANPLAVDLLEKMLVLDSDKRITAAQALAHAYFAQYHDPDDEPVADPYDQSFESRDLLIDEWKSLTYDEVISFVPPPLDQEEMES
`CC(=O)N1CCN(C[C@H](C)[C@@H](Nc2nccn(-c3cc(C(=O)NC4CC4)ccc3C)c2=O)c2ccccc2)CC1` [Example 140, 3-[3-[[(1R,2S)-3-(4-Acetyl-1-piperazinyl)-2-methyl-1-phenylpropyl]amino]-2-oxo-1(2H)-pyrazinyl]-N-cyclopropyl-4-methyl-benzamide]: the pIC50 (as a rule, −log10 of the IC50, conventionally taken in molar units) is 8.6.
With `Cc1ccc(C(=O)NC2CC2)cc1-n1ccnc(N[C@@H](c2ccccc2)[C@@H](C)CN2CCCC2)c1=O` [Example 142, N-Cyclopropyl-4-methyl-3-[3-[[(1R,2S)-2-methyl-1-phenyl-3-(1-pyrrolidinyl)propyl]amino]-2-oxo-1(2H)-pyrazinyl]-benzamide], the negative-log IC50 (pIC50) was found to be 8.8.
As for `Cc1ccc(C(=O)NC2CC2)cc1-n1ccnc(N[C@@H](c2cccc3ccccc23)[C@@H](C)CN2CCCC2)c1=O` [Example 144, N-Cyclopropyl-4-methyl-3-[3-[[(1R,2S)-2-methyl-1-(1-naphthalenyl)-3-(1-pyrrolidinyl)propyl]amino]-2-oxo-1(2H)-pyrazinyl]-benzamide], the negative-log IC50 (pIC50) turned out to be 7.9.
On to `Cc1ccc(C(=O)NC2CC2)cc1-n1ccnc(N[C@@H](c2cccc3ccccc23)[C@@H](C)CN2CCOCC2)c1=O` [Example 145, N-Cyclopropyl-4-methyl-3-[3-[[(1R,2S)-2-methyl-3-(4-morpholinyl)-1-(1-naphthalenyl)propyl]amino]-2-oxo-1(2H)-pyrazinyl]-benzamide], for which the pIC50 is 8.2.
Regarding `CCN(CC)C[C@H](C)[C@@H](Nc1nccn(-c2cc(C(=O)NC3CC3)ccc2C)c1=O)c1ccccc1` [Example 146, N-cyclopropyl-3-[3-[[(1R,2S)-3-(diethylamino)-2-methyl-1-phenylpropyl]amino]-2-oxo-1(2H)-pyrazinyl]-4-methyl-benzamide], the pIC50 is on record as 8.9.
Consider `COC[C@H]1CCCN1C[C@H](C)[C@@H](Nc1nccn(-c2cc(C(=O)NC3CC3)ccc2C)c1=O)c1ccccc1` [Example 147, N-Cyclopropyl-3-[3-[[(1R,2S)-3-[(2R)-2-(methoxymethyl)-1-pyrrolidinyl]-2-methyl-1-phenylpropyl]amino]-2-oxo-1(2H)-pyrazinyl]-4-methyl-benzamide], for which the negative-log IC50 (pIC50) turned out to be 9.
`COC[C@H]1CCCN1C[C@@H](C)[C@@H](Nc1nccn(-c2cc(C(=O)NC3CC3)ccc2C)c1=O)c1ccccc1` [Example 148, N-Cyclopropyl-3-[3-[[(1R,2R)-3-[(2R)-2-(methoxymethyl)-1-pyrrolidinyl]-2-methyl-1-phenylpropyl]amino]-2-oxo-1(2H)-pyrazinyl]-4-methyl-benzamide]: the pIC50 amounted to 8.1.
On to `COC[C@@H]1CCCN1C[C@H](C)[C@@H](Nc1nccn(-c2cc(C(=O)NC3CC3)ccc2C)c1=O)c1ccccc1` [Example 149, N-Cyclopropyl-3-[3-[[(1R,2S)-3-[(2S)-2-(methoxymethyl)-1-pyrrolidinyl]-2-methyl-1-phenylpropyl]amino]-2-oxo-1(2H)-pyrazinyl]-4-methyl-benzamide], for which the pIC50 was 8.9.
Next, `COC[C@@H]1CCCN1C[C@@H](C)[C@@H](Nc1nccn(-c2cc(C(=O)NC3CC3)ccc2C)c1=O)c1ccccc1` [Example 150, N-Cyclopropyl-3-[3-[[(1R,2R)-3-[(2S)-2-(methoxymethyl)-1-pyrrolidinyl]-2-methyl-1-phenylpropyl]amino]-2-oxo-1(2H)-pyrazinyl]-4-methyl-benzamide]: 7.9; `Cc1ccc(C(=O)NC2CC2)cc1-n1ccnc(N[C@@H](c2ccccc2)[C@@H](C)CN2CCC(CO)CC2)c1=O` [Example 151, N-Cyclopropyl-3-[3-[[(1R,2S)-3-[4-(hydroxymethyl)-1-piperidinyl]-2-methyl-1-phenylpropyl]amino]-2-oxo-1(2H)-pyrazinyl]-4-methyl-benzamide]: 9.1.
As to `Cc1ccc(C(=O)NC2CC2)cc1-n1ccnc(N[C@@H](c2ccccc2)[C@@H](C)CN2CCC(O)CC2)c1=O` [Example 152, N-Cyclopropyl-3-[3-[[(1R,2S)-3-(4-hydroxy-1-piperidinyl)-2-methyl-1-phenylpropyl]amino]-2-oxo-1(2H)-pyrazinyl]-4-methyl-benzamide], the pIC50 worked out at 8.9.
`Cc1ccc(C(=O)NC2CC2)cc1-n1ccnc(N[C@@H](c2ccccc2)[C@@H](C)CNC(C)(C)C)c1=O` [Example 153, N-Cyclopropyl-3-[3-[[(1R,2S)-3-[(1,1-dimethylethyl)amino]-2-methyl-1-phenylpropyl]amino]-2-oxo-1(2H)-pyrazinyl]-4-methyl-benzamide]: the pIC50 was 9.2.
As to `Cc1ccc(C(=O)NC2CC2)cc1-n1ccnc(N[C@@H](c2ccccc2)[C@@H](C)CN(C)C(C)(C)C)c1=O` [Example 154, N-Cyclopropyl-3-[3-[[(1R,2S)-3-[(1,1-dimethylethyl)methylamino]-2-methyl-1-phenylpropyl]amino]-2-oxo-1(2H)-pyrazinyl]-4-methyl-benzamide], the pIC50 is 9.
In the case of `Cc1ccc(C(=O)NC2CC2)cc1-n1ccnc(N[C@@H](c2ccccc2)[C@@H](C)CNCCN(C)C)c1=O` [Example 155, N-Cyclopropyl-3-[3-[[(1R,2S)-3-[[2-(dimethylamino)ethyl]amino]-2-methyl-1-phenylpropyl]amino]-2-oxo-1(2H)-pyrazinyl]-4-methyl-benzamide], the pIC50 worked out at 9.1.
As for `Cc1ccc(C(=O)NC2CC2)cc1-n1ccnc(N[C@@H](c2ccccc2)[C@@H](C)CN(C)CCN(C)C)c1=O` [Example 156, N-Cyclopropyl-3-[3-[[(1R,2S)-3-[[2-(dimethylamino)ethyl]methylamino]-2-methyl-1-phenylpropyl]amino]-2-oxo-1(2H)-pyrazinyl]-4-methyl-benzamide], the pIC50 was determined as 8.9.
With `Cc1ccc(C(=O)NC2CC2)cc1-n1ccnc(N[C@@H](c2ccccc2)[C@@H](C)CNCC(C)(C)C)c1=O` [Example 157, N-Cyclopropyl-3-[3-[[(1R,2S)-3-[(2,2-dimethylpropyl)amino]-2-methyl-1-phenylpropyl]amino]-2-oxo-1(2H)-pyrazinyl]-4-methyl-benzamide], the pIC50 is 9.
For the molecule `CONC(=O)c1ccc(C)c(-n2ccnc(N[C@@H](c3cccc4ccccc34)[C@@H](C)CN3CCCC3)c2=O)c1` [Example 158, N-Methoxy-4-methyl-3-[3-[[(1R,2S)-2-methyl-1-(1-naphthalenyl)-3-(1-pyrrolidinyl)propyl]amino]-2-oxo-1(2H)-pyrazinyl]-benzamide], the pIC50 came to 9.
Next, `CONC(=O)c1ccc(C)c(-n2ccnc(N[C@@H](c3ccccc3)[C@@H](C)CN3CCCC3)c2=O)c1` [Example 159, N-Methoxy-4-methyl-3-[3-[[(1R,2S)-2-methyl-1-phenyl-3-(1-pyrrolidinyl)propyl]amino]-2-oxo-1(2H)-pyrazinyl]-benzamide]: 9.6; `CONC(=O)c1ccc(C)c(-n2ccnc(N[C@@H](c3ccccc3)[C@@H](C)CN3CCOCC3)c2=O)c1` [Example 160, N-Methoxy-4-methyl-3-[3-[[(1R,2S)-2-methyl-3-(4-morpholinyl)-1-phenylpropyl]amino]-2-oxo-1(2H)-pyrazinyl]-benzamide]: 9.8; `CONC(=O)c1ccc(C)c(-n2ccnc(N[C@@H](c3cccc4ccccc34)[C@@H](C)CN3CCOCC3)c2=O)c1` [Example 161, N-Methoxy-4-methyl-3-[3-[[(1R,2S)-2-methyl-3-(4-morpholinyl)-1-(1-naphthalenyl)propyl]amino]-2-oxo-1(2H)-pyrazinyl]-benzamide]: 9.2.
With `CONC(=O)c1ccc(C)c(-n2ccnc(N[C@@H](c3ccccc3)[C@@H](C)CO)c2=O)c1` [Example 162, 3-[3-[[(1R,2R)-3-Hydroxy-2-methyl-1-phenylpropyl]amino]-2-oxo-1(2H)-pyrazinyl]-N-methoxy-4-methyl-benzamide, trifluoroacetate], the pIC50 is on record as 9.4.
Under `CNCCCOc1ccccc1C(C)(C)Nc1nccn(-c2cc(C(=O)NC3CC3)ccc2C)c1=O` [Example 164, N-Cyclopropyl-4-methyl-3-[3-[[1-methyl-1-[2-[3-(methylamino)propoxy]phenyl]ethyl]amino]-2-oxo-1(2H)-pyrazinyl]-benzamide] stands 9.6; under `CNCCOc1ccccc1C1(Nc2nccn(-c3cc(C(=O)NC4CC4)ccc3C)c2=O)CC1` [Example 167, N-Cyclopropyl-4-methyl-3-[3-[[1-[2-[2-(methylamino)ethoxy]phenyl]cyclopropyl]amino]-2-oxo-1(2H)-pyrazinyl]-benzamide], 9.7; under `CCNCCOc1ccccc1C1(Nc2nccn(-c3cc(C(=O)NC4CC4)ccc3C)c2=O)CC1` [Example 168, N-Cyclopropyl-4-methyl-3-[3-[[1-[2-[2-(ethylamino)ethoxy]phenyl]cyclopropyl]amino]-2-oxo-1(2H)-pyrazinyl]-benzamide], 9.9.
On to `CNCCOc1ccccc1C(C)(C)Nc1nccn(-c2cc(C(=O)NC3CC3)cc(F)c2C)c1=O` [Example 169, N-Cyclopropyl-3-fluoro-4-methyl-5-[3-[[1-methyl-1-[2-[2-(methylamino)ethoxy]phenyl]ethyl]amino]-2-oxo-1(2H)-pyrazinyl]-benzamide], for which the pIC50 came out at 9.9.
Consider `Cc1ccc(C(=O)NC2CC2)cc1-n1ccnc(N[C@@H](c2ccccc2)[C@@H](C)CN2CCC(C)CC2)c1=O` [Example 170, N-Cyclopropyl-4-methyl-3-[3-[[(1R,2S)-2-methyl-3-(4-methyl-1-piperidinyl)-1-phenylpropyl]amino]-2-oxo-1(2H)-pyrazinyl]-benzamide], for which the pIC50 stood at 8.9.
Regarding `Cc1ccc(C(=O)NC2CC2)cc1-n1ccnc(N[C@@H](c2ccccc2)[C@@H](C)CN2CCN(C(C)C)CC2)c1=O` [Example 171, N-Cyclopropyl-4-methyl-3-[3-[[(1R,2S)-2-methyl-3-[4-(1-methylethyl)-1-piperazinyl]-1-phenylpropyl]amino]-2-oxo-1(2H)-pyrazinyl]-benzamide], the pIC50 is given as 8.8.

These data come from patent US20120214822A1 (ASTRAZENECA AB, priority 2007, published 2012).
